What was measured:
human salivary α-amylase = biological target: T1, human salivary α-amylase (Homo sapiens, UniProt P0DUB6); test: α-amylase inhibition assay (CNP-G3, absorbance 405 nm); type: biochemical; conditions: for IC50: 120 min incubation, pH 6.0, 37 °C
T1 construct: purchased Sigma Aldrich
T1 sequence (P0DUB6 16-511): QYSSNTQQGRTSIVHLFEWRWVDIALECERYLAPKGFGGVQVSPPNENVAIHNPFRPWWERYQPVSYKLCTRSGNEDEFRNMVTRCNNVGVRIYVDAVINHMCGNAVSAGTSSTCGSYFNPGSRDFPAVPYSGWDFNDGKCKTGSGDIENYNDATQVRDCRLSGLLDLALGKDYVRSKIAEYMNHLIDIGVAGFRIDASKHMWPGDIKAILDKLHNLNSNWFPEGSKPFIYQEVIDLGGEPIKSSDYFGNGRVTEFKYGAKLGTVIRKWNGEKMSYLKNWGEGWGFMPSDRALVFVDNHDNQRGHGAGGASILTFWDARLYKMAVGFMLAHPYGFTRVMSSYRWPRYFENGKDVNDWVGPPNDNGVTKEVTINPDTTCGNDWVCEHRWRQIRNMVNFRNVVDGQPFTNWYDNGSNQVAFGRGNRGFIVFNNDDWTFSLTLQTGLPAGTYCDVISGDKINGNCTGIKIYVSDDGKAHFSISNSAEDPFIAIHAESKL
Procedure: The α-amylase inhibition assay was performed in 96-well microtiter plates. In each well was added 10 μL of propolis sample dissolved in DMSO, and 90 μL of 0.1 M phosphate buffer adjusted to pH 6.0 using 2.0 M H3PO4. To the solution, 80 μL of human salivary α-amylase solution (2.0 U/mL) was added and incubated for approximately 10 min at 37 °C. The enzyme reaction was initiated by adding 20 μL of the substrate solution CNP-G3 (10 mM in phosphate buffer). […] The percentage inhibition was calculated using the same formula as described for the α-glucosidase inhibition assay.

porcine pancreas lipase = biological target: T2, porcine pancreas lipase (Sus scrofa, UniProt P00591); test: lipase inhibition assay (p-NPB, absorbance 405 nm); type: biochemical; conditions: for IC50: 60 min incubation, pH 7.4, 37 °C
T2 construct: purchased Sigma Aldrich
T2 sequence (P00591 1-450): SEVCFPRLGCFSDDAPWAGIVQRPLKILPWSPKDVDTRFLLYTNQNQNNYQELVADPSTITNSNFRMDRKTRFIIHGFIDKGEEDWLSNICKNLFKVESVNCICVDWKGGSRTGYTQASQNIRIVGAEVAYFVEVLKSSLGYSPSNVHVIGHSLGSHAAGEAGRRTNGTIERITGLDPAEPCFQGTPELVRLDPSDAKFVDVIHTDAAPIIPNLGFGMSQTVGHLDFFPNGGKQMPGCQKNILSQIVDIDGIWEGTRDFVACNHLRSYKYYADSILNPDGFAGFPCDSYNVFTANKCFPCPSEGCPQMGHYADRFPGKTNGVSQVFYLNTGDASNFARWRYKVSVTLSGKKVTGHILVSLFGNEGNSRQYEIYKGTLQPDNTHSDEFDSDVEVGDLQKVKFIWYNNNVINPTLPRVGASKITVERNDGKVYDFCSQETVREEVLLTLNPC
Procedure: The solvents used for extraction (ethanol—EtOH), HPLC (acetonitrile—MeCN), and LC–MS (MeCN and water—H2O) analyses were purchased from Merck. The ultra-pure water used for the HPLC analysis was from an in-house Milli-Q system.
The lipase inhibition assay was performed in 96-well microtiter plates. In each well was added 10 μL of propolis sample dissolved in DMSO and 155 μL of 0.1 M tris-HCl buffer adjusted to pH 7.4 using 1.0 M KOH. To the solution, 25 μL of lipase solution (2000 U/mL) was added and incubated for approximately 15 min at 37 °C. The enzyme reaction was initiated by adding 10 μL of the substrate solution p-NPB (100 mM in methanol). The colorimetric absorbance of the cleavage product after 60 min of incubation was measured at 405 nm, using the EnSpire microplate reader (Perkin Elmer). […] The percentage inhibition was calculated using the same formula as described for the α-glucosidase inhibition assay.

α-glucosidase = α-glucosidase (Saccharomyces cerevisiae, UniProt P53341); test: biochemical; conditions: read-out: α-Glucosidase inhibition
Procedure: The α-glucosidase inhibition assay was performed at room temperature in 96-well microtiter plates (Sigma Aldrich, Sydney, Australia). The assays were adapted from Zhao et al., with some modifications. Briefly, in each well was added 10 μL of propolis sample at 2 mg/mL in DMSO and 90 μL of 0.1 M phosphate buffer, adjusted to pH 7.5 using 0.6 M KOH. To the solution, 80 μL of α-glucosidase solution (2.0 U/mL) was added and incubated for 10 min at room temperature. The enzyme reaction was initiated by adding 20 μL of p-NPG solution (10 mM in phosphate buffer). The colorimetric absorbance of the cleavage product (the strongly chromogenic p-nitrophenolate ion) after 30 min of incubation was measured at 405 nm using the EnSpire microplate reader (Perkin Elmer, Boston, MA, USA). […] The results were analyzed and calculated in Microsoft Excel, and expressed using the mean for each of the triplicate sets. Inhibition of the enzyme was calculated as follows: Inhibition (%)=(1−Absorbance (sample)/Absorbance (blank) )×100%)

α-glucosidase, sequence (P53341 whole entry): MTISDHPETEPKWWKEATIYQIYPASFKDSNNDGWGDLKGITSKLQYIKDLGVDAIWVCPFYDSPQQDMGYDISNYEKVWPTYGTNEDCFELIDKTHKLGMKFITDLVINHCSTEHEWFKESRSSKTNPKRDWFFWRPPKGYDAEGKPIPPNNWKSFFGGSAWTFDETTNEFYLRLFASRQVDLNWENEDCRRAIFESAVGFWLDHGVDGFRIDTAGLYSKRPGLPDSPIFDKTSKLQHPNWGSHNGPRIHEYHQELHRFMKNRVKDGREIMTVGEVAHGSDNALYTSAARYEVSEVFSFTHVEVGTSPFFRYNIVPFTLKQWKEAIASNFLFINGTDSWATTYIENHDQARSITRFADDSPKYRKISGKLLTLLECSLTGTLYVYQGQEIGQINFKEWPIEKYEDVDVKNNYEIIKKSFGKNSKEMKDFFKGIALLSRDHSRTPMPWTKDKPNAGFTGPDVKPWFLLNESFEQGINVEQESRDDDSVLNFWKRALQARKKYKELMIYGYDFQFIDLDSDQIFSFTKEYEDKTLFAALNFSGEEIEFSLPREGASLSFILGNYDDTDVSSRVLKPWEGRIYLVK

Row | SMILES | IC50 (human salivary α-amylase) [µM] | IC50 (porcine pancreas lipase) [µM] | inhibition at 250 µM (α-glucosidase) [%] | inhibition at 250 µM (human salivary α-amylase) [%] | inhibition at 83 µM (porcine pancreas lipase) [%]
1 | CC(C)=CCC/C(C)=C/Cc1c([C@@H]2CC(=O)c3c(O)cc(O)cc3O2)ccc(O)c1O [Compound 1, propolin D (Nymphaeol B)] | 205 | 51.8 | – | – | –
2 | CC(C)=CCC/C(C)=C/Cc1cc([C@@H]2CC(=O)c3c(O)cc(O)cc3O2)cc(O)c1O [Compound 2, propolin F (Isonymphaeol B)] | 135 | 53 | – | – | –
3 | CC(C)=CCC/C(C)=C/Cc1c(O)cc2c(c1O)C(=O)C[C@@H](c1ccc(O)c(O)c1)O2 [Compound 3, propolin C (Nymphaeol A)] | 204 | 30.3 | – | – | –
4 | CC(C)=CCC/C(C)=C/Cc1cc([C@@H]2CC(=O)c3c(O)cc(O)cc3O2)ccc1O [Compound 4, propolin H (3′-geranyl-naringenin)] | 52.5 | 33.1 | – | – | –
5 | CC(C)=CCC/C(C)=C/Cc1c([C@@H]2CC(=O)c3c(cc(O)c(CC=C(C)C)c3O)O2)ccc(O)c1O [Compound 5, propolin G (Nymphaeol C)] | 246 | 43.4 | – | – | –
6 | CC(C)=CCC/C(C)=C/Cc1c(-c2oc3cc(O)cc(O)c3c(=O)c2O)ccc(O)c1O [Compound 6, solophenol D] | 142 | 32.3 | – | – | –
7 | O=C1C[C@@H](c2ccc(O)c(O)c2)Oc2cc(O)cc(O)c21 [Compound 7, eriodictyol, reference compound] | – | – | 13 | 41 | 12
8 | O=C1C[C@@H](c2ccc(O)cc2)Oc2cc(O)cc(O)c21 [Compound 8, naringenin, reference compound] | 121 | – | 40 | 73 | 24
9 | O=c1c(O)c(-c2ccc(O)c(O)c2)oc2cc(O)cc(O)c12 [Compound 9, quercetin, reference compound] | 17.4 | – | – | – | 37

From article PMC9266216, “Chemical Characterization, α-Glucosidase, α-Amylase and Lipase Inhibitory Properties of the Australian Honey Bee Propolis” (Foods, 2022)
